Assay results reported in patent publication US7741314B2, “2-Methylene-(20R,25S)-19,27-Dinor-(22E)-Vitamin D Analogs” (Wisconsin Alumni Research Foundation, priority 2006, dated 2010).
Read-outs that look alike come from different tables or passages of the source.

Experiments:
[1] = tested on: Human promyelocytic leukemia (HL60) cells; assay: HL-60 differentiation (nitro blue tetrazolium reduction); assay type: cell-based; settings: FIG. 2; for EC50: HL-60 cells, four days after treatment, read-out: EC50, HL-60 cell differentiation
Procedure: The study drugs were dissolved in ethanol and the concentrations determined using UV spectrophotometry. Serial dilutions were prepared so that a range of drug concentrations could be tested without changing the final concentration of ethanol (≦0.2%) present in the cell cultures.
Human promyelocytic leukemia (HL60) cells were grown in RPMI-1640 medium containing 10% fetal bovine serum. The cells were incubated at 37° C. in the presence of 5% CO2.
HL60 cells were plated at 1.2×10^5 cells/ml. Eighteen hours after plating, cells in duplicate were treated with drug. Four days later, the cells were harvested and a nitro blue tetrazolium reduction assay was performed (Collins et al., 1979; J. Exp. Med. 149:969-974). The percentage of differentiated cells was determined by counting a total of 200 cells and recording the number that contained intracellular black-blue formazan deposits. Verification of differentiation to monocytic cells was determined by measuring phagocytic activity (data not shown).

[2] = tested on: 24-hydroxylase (24Ohase) gene promoter in ROS 17/2.8 (bone) cells; assay: In vitro transcription assay (luciferase reporter); assay type: cell-based; settings: FIG. 3; for EC50: ROS 17/2.8 cells, 24Ohase promoter-luciferase, 16 h, read-out: EC50, transcriptional activity in bone cells
Procedure: Transcription activity was measured in ROS 17/2.8 (bone) cells that were stably transfected with a 24-hydroxylase (24Ohase) gene promoter upstream of a luciferase reporter gene (Arbour et al., 1998). Cells were given a range of doses. Sixteen hours after dosing the cells were harvested and luciferase activities were measured using a luminometer.
RLU=relative luciferase units.

vitamin D-deficient rats [3] = assay: Bone calcium mobilization (serum calcium); assay type: in vivo, rat; settings: FIG. 4
Procedure: (§1) Male, weanling Sprague-Dawley rats were placed on Diet 11 (0.47% Ca) diet+AEK for one week followed by Diet 11 (0.02% Ca)+AEK for 3 weeks. The rats were then switched to a diet containing 0.47% Ca for one week followed by two weeks on a diet containing 0.02% Ca. Dose administration began during the last week on 0.02% calcium diet. Four consecutive ip doses were given approximately 24 hours apart. Twenty-four hours after the last dose, blood was collected from the severed neck and the concentration of serum calcium determined as a measure of bone calcium mobilization. The first 10 cm of the intestine was also collected for intestinal calcium transport analysis using the everted gut sac method.

vitamin D-deficient rats [4] = assay: Intestinal calcium transport (everted gut sac method); assay type: in vivo, rat; settings: FIG. 5; for intestinal calcium transport: everted gut sac
Procedure: as §1

[5] = target: T1, full-length recombinant rat vitamin D receptor (Rattus norvegicus, UniProt P13053); assay: Vitamin D receptor binding, competition with [3H]-1,25(OH)2D3; settings: FIG. 1
T1 construct: Full-length recombinant rat receptor was expressed in E. coli; histidine tag (C); made in house; host or cells: E. coli BL21 (DE3) Codon Plus RIL
T1 sequence (P13053 1-423): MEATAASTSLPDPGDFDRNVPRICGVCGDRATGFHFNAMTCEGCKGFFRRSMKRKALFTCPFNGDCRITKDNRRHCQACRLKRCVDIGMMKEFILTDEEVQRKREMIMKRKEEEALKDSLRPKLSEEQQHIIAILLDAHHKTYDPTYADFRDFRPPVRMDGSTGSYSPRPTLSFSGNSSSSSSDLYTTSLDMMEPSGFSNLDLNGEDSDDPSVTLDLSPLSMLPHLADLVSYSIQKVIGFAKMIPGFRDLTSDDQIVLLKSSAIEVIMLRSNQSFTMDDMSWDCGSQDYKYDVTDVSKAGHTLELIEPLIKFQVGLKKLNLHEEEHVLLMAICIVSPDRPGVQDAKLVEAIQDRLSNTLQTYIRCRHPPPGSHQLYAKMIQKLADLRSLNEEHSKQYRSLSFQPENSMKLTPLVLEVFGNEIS
Procedure: Full-length recombinant rat receptor was expressed in E. coli BL21 (DE3) Codon Plus RIL cells and purified to homogeneity using two different column chromatography systems. The first system was a nickel affinity resin that utilizes the C-terminal histidine tag on this protein. The protein that was eluted from this resin was further purified using ion exchange chromatography (S-Sepharose Fast Flow). Aliquots of the purified protein were quick frozen in liquid nitrogen and stored at −80° C. until use. For use in binding assays, the protein was diluted in TEDK50 (50 mM Tris, 1.5 mM EDTA, pH7.4, 5 mM DTT, 150 mM KCl) with 0.1% Chaps detergent. The receptor protein and ligand concentration were optimized such that no more than 20% of the added radiolabeled ligand was bound to the receptor.
Radiolabeled and unlabeled ligands were added to 100 mcl of the diluted protein at a final ethanol concentration of ≦10%, mixed and incubated overnight on ice to reach binding equilibrium. The following day, 100 mcl of hydroxylapatite slurry (50%) was added to each tube and mixed at 10-minute intervals for 30 minutes. The hydroxylapaptite was collected by centrifugation and then washed three times with Tris-EDTA buffer (50 mM Tris, 1.5 mM EDTA, pH 7.4) containing 0.5% Titron X-100. […] Total binding was determined from the tubes containing only radiolabeled ligand.

Ki ([5]; full-length recombinant rat VDR) | binding to the receptor compared to 1,25-(OH)2D3 ([5]; in words) | EC50 ([1]; Homo sapiens, 96 h) | Structure (SMILES) | EC50 [1] | EC50 [2] | serum calcium levels (vitamin D-deficient rats [3]; all dosages, rats on low calcium diet (0.02%)) | intestinal calcium transport (vitamin D-deficient rats [4]; 260 pmol/day) | potency on HL-60 cell differentiation compared to 1,25(OH)2D3 ([1]; in words) | transcriptional activity in bone cells compared to 1α,25-dihydroxyvitamin D3 ([2]; in words) | bone calcium mobilization (serum calcium) (vitamin D-deficient rats [3]; 260 pmol/day ip for 4 consecutive days, rats on low calcium diet (0.02%)) | bone calcium mobilization (serum calcium) (vitamin D-deficient rats [3]; 7020 pmol/day, rats on low calcium diet (0.02%)) | bone calcium mobilization activity compared to 1,25(OH)2D3 (vitamin D-deficient rats [3]; in words) | intestinal calcium transport (vitamin D-deficient rats [4]; 7020 pmol/day) | intestinal calcium transport activity compared to 1,25(OH)2D3 (vitamin D-deficient rats [4]; in words)
– | – | – | C=C1/C(=C\C=C2/CCC[C@]3(C)[C@@H]([C@H](C)CCCC(C)(C)O)CC[C@@H]23)C[C@@H](O)C[C@@H]1O [1,25(OH)2D3, 1α,25-dihydroxyvitamin D3, reference compound] | 2 nM | 0.2 nM | increased serum calcium levels at all dosages | promotes a significant increase | – | – | – | – | – | – | –
0.4 nM | bound equally to the receptor | 1 nM | C=C1[C@H](O)CC(=C/C=C2\CCC[C@]3(C)[C@@H]([C@H](C)/C=C/C[C@H](C)O)CC[C@@H]23)C[C@H]1O [REN, 2-methylene-(20R,25S)-19,27-dinor-(22E)-1α,25-dihydroxyvitamin D3] | – | 0.1 nM | – | promotes intestinal calcium transport only slightly | as potent as 1,25(OH)2D3 | about the same transcriptional activity | did not result in mobilization of bone calcium | without any substantial effect | very little bone calcium mobilization activity | significant intestinal calcium transport activity | very little activity
